According to patent US20250221963A1 (GH RESEARCH IRELAND LIMITED, priority 2022, published 2025):
Where “and” joins values, the source holds several entries; their conditions need not be identical. Identical values can stand only once.

What was measured:
[1] = test system: patients with postpartum depression (PPD); assay: Clinical trial of inhaled 5-MeO-DMT in postpartum depression; details: PPD patient
Description: The single-arm, open-label clinical trial will involve 15 adult female patients with clinically diagnosed postpartum depression (PPD).
The second dose (12 mg) will only be administered if: • a. […] The 6 mg dose was safe and well-tolerated according to the investigator, • c. Any psychoactive effects (PsE) of the prior dose have subsided, and • d. Pre-dose vital parameters and forced expiratory volume in one second (FEV1) are in normal range, or if outside of the normal range, are not clinically significant according to the investigator. • 3. Similarly, a third dose (18 mg) will only be administered if: • a. […] The 12 mg dose was safe and well-tolerated according to the investigator, and • c. Any PsE of the prior dose have subsided, and • d. Pre-dose vital parameters and forced expiratory volume in one second (FEV1) are in normal range, or if outside of the normal range, are not clinically significant according to the investigator.
The patients will be assessed for a peak psychedelic experience (based on a patient-scored visual analogue scale, the PE scale), sedation, and other endpoints after dosing. Follow-up visits are planned for Day 1, and Day 7 after the dosing day.
The following criteria must be met by all patients considered for clinical trial participation: • 1. Is female and in the age range between 18 and 45 years (inclusive) at screening. • 2. Has a body mass index (BMI) in the range of 18.5 and 35 kg/m^2 (inclusive) at screening. • 3. Meets the trial criteria for PPD as assessed by a trial psychiatrist or registered psychologist: • a. Diagnosis of Major Depressive Disorder without psychotic features, confirmed by the Mini-International Neuropsychiatric Interview (MINI), with peri-partum onset that began no earlier than gestation and no later than the first 4 weeks postpartum. • b. Has a Montgomery-Åsberg Depression Rating Scale (MADRS) total score of equal to or greater than 28 at screening and pre-dose on Day 0. • 6. […] Patients must have a negative pregnancy test at screening and on the pre-test day (Day −1). • 5. Is willing to delay start of other antidepressant or anxiety medication until after the end of the trial at Day 7 and agrees to keep any psychotherapy unchanged during the trial.
A potential patient who meets any of the following key exclusion criteria will be excluded from participation in this trial: • 1. Has, based on history, psychiatric assessment, and evaluation of the MINI, a current or prior diagnosis of bipolar disorder, a manic or hypomanic episode, a psychotic disorder, Major Depressive Disorder (MDD) or other mood disorder with psychotic features, obsessive compulsive disorder, post-traumatic stress disorder (PTSD), autism spectrum disorder, borderline personality disorder, schizophrenia, delusional disorder, paranoid personality disorder, schizoaffective disorder, clinically significant intellectual disability, or any other psychiatric comorbidity that renders the patient unsuitable for the trial according to the investigator's judgment. • 2. Has one or more first or second degree relatives with a current or previously diagnosed bipolar disorder, psychotic disorder or other mood disorder (including MDD) with psychotic features. • 3. Is in the judgement of a trial psychiatrist or registered psychologist, at significant risk for suicide based on history, psychiatric assessment, and evaluation of suicidal ideation and suicidal behaviour based on the Columbia-Suicide Severity Rating Scale (C-SSRS). • 4. Has taken anti-depressive medication within 14 days or 5 half-lives (whichever is longer) prior to dosing (exception: within the last 5 weeks in the case of fluoxetine). • 5.

[2] = test system: Salmonella typhimurium TA98, TA100, TA1535 and TA1537; assay: Bacterial mutation test, Salmonella typhimurium; format: cell-based; details: up to 5000 μg/plate, absence and presence of S-9
Description: These conditions included treatments at concentrations up to 5000 μg/plate (the maximum recommended concentration according to current regulatory guidelines), in the absence and in the presence of a rat liver metabolic activation system (S-9).

## COc1ccc2[nH]cc(CCN(C)C)c2c1 [5-MeO-DMT]
[1]
  BIMF Adjustment Δ (Day 7): 1
  BIMF Infant Care Δ (Day 7): 0
  BIMF Management Δ (Day 7): 5
  BIMF Mother-Child Interaction Δ (Day 7): 2
  BIMF Psychological Well-being Δ (Day 7): 9
  BIMF Self-Care Δ (Day 7): 4
  BIMF Social Support Δ (Day 7): 1
  BIMF TOTAL Δ (Day 7): 13
  ECG (3 hours), safety laboratory analyses (7 days), CADSS (3 hours, 1 day, 7 days): unremarkable
  MADRS response and MADRS remission criteria: fulfilled standard criteria for MADRS response
  Reported adverse events (cramping left abdominal pain and headache, Day 0): mild, short-lasting and resolved spontaneously
  Time to clinical remission after administration according to the IDR: ≤ 2 h
  Tolerability of the inhalation procedure: well tolerated with no inhalation-related adverse events
[1]; 2 hr
  Total MADRS improvement: 24
[1]; 2 hr, baseline 29
  Total MADRS score: 5
[1]; Day 1
  BPRS Tension improvement: 5
  Total MADRS improvement: 29
[1]; Day 1, baseline 29
  Total MADRS score: 0
[1]; Day 7
  BIMF Adjustment % Improvement: 20.00%
  BIMF Infant Care % Improvement: 0.00%
  BIMF Management % Improvement: 18% and 17.86%
  BIMF Mother-Child Interaction % Improvement: 13.33%
  BIMF Psychological Well-being % Improvement: 20.45%
  BIMF Self-Care % Improvement: 44% and 44.44%
  BIMF Social Support % Improvement: 5.88%
  BIMF total score improvement: 14%
  Total MADRS improvement: 28
[1]; Day 7, Day 0 score 5, maximum 12
  BIMF functional domain Adjustment score: 6
[1]; Day 7, Day 0 score 6
  BIMF item 6 (people in my life that I can trust to care for my baby) score: 6
[1]; Day 7, Day 0 score 9, maximum 18
  BIMF functional domain Self-Care score: 13
[1]; Day 7, Day 0 score 12, maximum 12
  BIMF functional domain Infant Care score: 12
[1]; Day 7, Day 0 score 15, maximum 18
  BIMF functional domain Mother-Child Interaction score: 17
[1]; Day 7, Day 0 score 17, maximum 18
  BIMF functional domain Social Support score: 18
[1]; Day 7, Day 0 score 28, maximum 36
  BIMF functional domain Management score: 33
[1]; Day 7, Day 0 score 44, maximum 60
  BIMF functional domain Psychological Well-being score: 53
[1]; Day 7, baseline 29
  Total MADRS score: 1
[1]; Discharge
  BPRS Tension improvement: 5
[1]; shortly after administration
  Changes in vital parameters: temporary, clinically non-relevant increase in heart rate and blood pressure
[2]
  Induction of mutation: did not induce mutation
